Test results as given in patent US7449546B2, “Method for extending storage of glutathione solutions and methods for treating Parkinson's disease with said stored glutathione solutions” (Kromar Medical Corporation, priority 2001, dated 2008).
Like-named read-outs stand apart in the source and are kept apart here.

Key:
[1] = for [G-SH]/[G-SH]0: storage at 5° C.
[2] = for [G-SH]/[G-SH]0: storage at 25° C.
Description: This solution was stored at room temperature (25° C.) for 74 days.

[3] = test system: liver cancer; details: oral, daily amount of 5,000 mg, eight patients; cited from earlier work
[4] = solution temperature lowered by 20° C. from room temperature

- dimerization of glutathione [1, 4]: essentially stopped
- storage period of the reduced glutathione solution [1, 4]: significantly greater than four months
- [G-SH]/[G-SH]0 ([1]; 1 day, 189 mg/ml, pH 6.4): 1.02
- [G-SH]/[G-SH]0 ([1]; 2 days, 189 mg/ml, pH 6.4): 1.01
- [G-SH]/[G-SH]0 ([1]; 3 days, 189 mg/ml, pH 6.4): 1.01
- [G-SH]/[G-SH]0 ([1]; 7 days, 189 mg/ml, pH 6.4): 1.02
- [G-SH]/[G-SH]0 ([1]; 14 days, 189 mg/ml, pH 6.4): 1.00
- [G-SH]/[G-SH]0 ([1]; 21 days, 189 mg/ml, pH 6.4): 0.99
- [G-SH]/[G-SH]0 ([1]; 28 days, 189 mg/ml, pH 6.4): 1.02
- [G-SH]/[G-SH]0 ([1]; 56 days, 189 mg/ml, pH 6.4): 1.00
- [G-SH]/[G-SH]0 ([1]; 84 days, 189 mg/ml, pH 6.4): 1.00
- [G-SH]/[G-SH]0 ([1]; 112 days, 189 mg/ml, pH 6.4): 0.98
- decrease of reduced glutathione concentration over time ([1]; stored at 5° C., monitored for four months, 189 mg/ml, 0.005M octylammonium orthophosphate, pH 6.4): no decrease over time
- concentration of reduced glutathione relative to its initial value ([2]; room temperature (25° C.), within three weeks, 180 mg/ml, pH 6.4): 90%
- [G-SH]/[G-SH]0 ([2]; 1 day, 180 mg/ml, pH 6.4): 0.94
- [G-SH]/[G-SH]0 ([2]; 2 days, 180 mg/ml, pH 6.4): 0.99
- [G-SH]/[G-SH]0 ([2]; 3 days, 180 mg/ml, pH 6.4): 0.99
- [G-SH]/[G-SH]0 ([2]; 7 days, 180 mg/ml, pH 6.4): 0.98
- [G-SH]/[G-SH]0 ([2]; 14 days, 180 mg/ml, pH 6.4): 0.95
- [G-SH]/[G-SH]0 ([2]; 21 days, 180 mg/ml, pH 6.4): 0.90
- [G-SH]/[G-SH]0 ([2]; 28 days, 180 mg/ml, pH 6.4): 0.89
- [G-SH]/[G-SH]0 ([2]; 56 days, 180 mg/ml, pH 6.4): 0.78
- [G-SH]/[G-SH]0 ([2]; 74 days, 180 mg/ml, pH 6.4): 0.68
SMILES: N[C@@H](CCC(=O)N[C@@H](CS)C(=O)NCC(=O)O)C(=O)O [reduced glutathione]
- safe storage time in aqueous solution ([2]; room temperature, absence of oxidation catalysts, criterion at least 90% of initial concentration): cannot be safely stored in aqueous solution at room temperature for longer than three weeks
- effects in patients with liver cancer [3]: modest effects in women but not in men
